What is called MIC is the least concentration at which growth counts as inhibited. By IC50 is commonly meant the concentration at which inhibition is half-maximal.

The test system of assay [1] is E. coli ΔampC. Kind of assay: MIC, Keio mutant. The class given is cell-based, Escherichia coli. The procedure:
All bacterial strains (see description and sources Table S1) were stored at −80 °C, and grown on tryptone soya agar (TSA) at 35 °C. The iron-deprived (ID)-MHBCA (cation-adjusted Muller-Hinton Broth, Becton Dickinson, Mississauga, ON, Canada) medium was prepared as reported by refs. [21],[50]. Briefly, MHBCA was treated with 10% Chelex® 50-100 mesh (Sigma) and stirred for 6 h at room temperature. The resin was removed by filtration. Divalent Ca^2+ (CaCl2), Mg^2+ (MgCl2), and Zn^2+(ZnSO4), were then added in the iron-depleted medium at 22, 12, and 1 μg/ml respectively. Finally, the pH was adjusted to 7.3, and the medium was sterilized with a 0.2-μm filter. Regular MHBCA (i.e., not treated with Chelex®) was used to compare the inhibitory activity of conjugates in iron-sufficient conditions. The resin used for Chelex treatment was always fresh and had never been regenerated, ensuring consistent iron removal.
(§1) Minimal inhibitory concentrations (MICs) were performed using a broth microdilution technique according to the Clinical and Laboratory Standards Institute (CLSI) guidelines. MICs were determined in MHBCA and in ID-MHBCA. To check the impact of β-lactamases, MICs in the presence of a β-lactamase inhibitor were also determined. The inhibitor was homogenized at 2X the final concentration and added to the bacterial inoculum just before distributing cells into the wells containing the drug dilutions. The final concentration of each inhibitor was 4 μg/mL for clavulanic acid (tested against K. pneumoniae) and 200 μg/mL for 3-aminophenylboronic acid (tested against P. aeruginosa and A. baumannii).

The test system of assay [2] is E. coli ΔacrAB. Description: MIC, efflux pump mutant. The class given is cell-based, Escherichia coli. On the procedure: as §1
The test system of assay [3] is P. aeruginosa 1020. Kind of assay: MIC, parent of efflux pump mutants. The class given is cell-based, Pseudomonas aeruginosa. On the procedure: as §1
Assay [4] addresses PBP1a/1b. Kind of assay: Membrane PBP binding assay, competition with Bocillin FL. Particulars: for IC50: E. coli MC4100 membranes, 12.5 μM Bocillin FL. On the set-up: species or system E. coli MC4100. The procedure:
(§2) Membrane extracts containing PBPs were obtained as described above. Briefly, all species were grown in 1 L of TSB until the OD600 reached 0.9. The washed pellet was incubated with lysozyme (400 μg/mL), DNase (10 μg/mL) RNase(10 μg/mL) and anti-protease cocktail (200 mg/20 mL). Lysis was done with a French press (20,000 psi) and membrane protein were pelleted by ultracentrifugation steps (100,000 × g). The pellet was suspended in a minimal volume (300–500 μL) of KP 0.05 M buffer at pH 7. The protein concentration in the membrane preparations was determined with the Micro BCA TM Protein Assay Kit (Thermo Fisher Scientific, Rockford, IL) using bovine serum albumin as a standard.
(§3) The PBP binding assay was done as described previously[36],[56],[57]. For each antibiotic concentration tested, a quantity of 25 to 40 μg of membrane preparation was used as the source of PBPs, depending on the species. For the purified PaPBP3, 150 ng was used in the assay. First, increasing concentrations of the test antibiotic was added to the membrane or purified PaPBP3 preparations and incubated for 10 min at 30 °C. The reporter molecule Bocillin FL was then added at 12.5 μM for the membrane PBPs preparations and at 500 nM for the pure PaPBP3 samples for an additional 20 min at 30 °C. All reactions were stopped with the addition of the Laemmli-loading buffer (Bio-Rad) containing fresh β-mercaptoethanol (Sigma). All reactions were then heated at 100°C for 3 min before migration on SDS-polyacrylamide discontinuous gel system (7.5% stacking and 10% separating). Control samples without Bocillin FL were also included to highlight autofluorescent proteins that are not PBPs.
(§4) To be able to visualize labeled PBPs after electrophoresis, gels were rinsed in water and fixed in a solution of 50% methanol and 7% acetic acid for 30 min. The fluorescent images of gels were obtained with the Typhoon FLA 9500 instrument (GE-Healthcare Bio-Sciences Inc., Baie-d’Urfé, QC, CA) using a 473 nm excitation wavelength. To obtain quantifiable data, the software Quantity One 1D analysis was used (version 4.6.6; Bio-Rad Laboratories, Richmond, CA). The volume (intensity × constant area) of each PBP was measured. […] All IC50 data were obtained from at least two independent PBP binding assays using two different sets of compound concentrations using a linear regression. The PBP profiles were confirmed, and the PBP numbering were determined using published data and individual molecular weights. […] For example, amdinocillin (Sigma) was used for PBP2 identification. […] The IC50 for PBP 2 of P. aeruginosa was measured by including the SDS-PAGE comigrating autofluorescent protein in the background, as done previously.

The target of assay [5] is T1, PBP2 (Escherichia coli, UniProt P0AD65).
T1 construct: using bacterial membranes as the source of PBPs; endogenous in cells; host or cells: E. coli MC4100 membrane preparation
The assay is described as above. Set-up: species or system E. coli MC4100. On the procedure:
as §2, §3, §4

Assay [6] concerns the target T2, PBP3 (Escherichia coli, UniProt P0AD68).
T2 construct: using bacterial membranes as the source of PBPs; endogenous in cells; host or cells: E. coli MC4100 membrane preparation
Described as above. On the set-up: species or system E. coli MC4100. The following applies: for IC50 value ratio βL/SID-βL, PBP3: E. coli MC4100. On the procedure: as §2, §3, §4

Assay [7] concerns the target T3, PBP4 (Escherichia coli, UniProt P24228).
T3 construct: using bacterial membranes as the source of PBPs; endogenous in cells; host or cells: E. coli MC4100 membrane preparation
The assay is described as above. On the set-up: species or system E. coli MC4100. The procedure:
as §2, §3, §4

The target of assay [8] is PBP2 (Klebsiella pneumoniae, UniProt A6T696). The assay is described as above. Set-up: species or system K. pneumoniae ATCC 13883. The procedure: as §2, §3, §4
In assay [9] the target is PBP1a/1b. The assay is described as above. The following applies: K. pneumoniae ATCC 13883 membranes. The procedure:
as §2, §3, §4

Where [10] appears, read: E. coli MC4100 membranes, read-out: IC50 PBP2.
Setting [11] is: E. coli MC4100 membranes, read-out: IC50 PBP3.
Where [12] appears, read: E. coli MC4100 membranes, read-out: IC50 PBP4.
The mark [13] stands for this setting: K. pneumoniae ATCC 13883 membranes, read-out: IC50 PBP2.
Setting [14] is: Pseudomonas aeruginosa, P. aeruginosa 1020, read-out: MIC.

In brackets after ≈: the same amount, converted by molar mass. Like-named read-outs stand apart in the source and are kept apart here.

In the case of `CC1(C)S[C@@H]2[C@H](NC(=O)[C@H](N)c3ccccc3)C(=O)N2[C@H]1C(=O)O` [AMP, ampicillin, reference compound], the MIC was 6.3 µM (≈ 2.2 µg/mL) in assay [1] (Escherichia coli, ID-MHBCA); 6.3 µM (≈ 2.2 µg/mL) in [1] (Escherichia coli, MHBCA); 6.3 µM (≈ 2.2 µg/mL) in assay [2] (Escherichia coli); more than 200 µM in assay [3] (Pseudomonas aeruginosa, 1020). Besides, the IC50 in assay [4] was found to be 7.22 ± 0.07 µM; in assay [5] (setting [10]) it was 11.4 ± 2.4 µM; in [6] (setting [11]), 1.92 ± 0.94 µM; in assay [7] (setting [12]), 8.3 ± 0.8 µM; in assay [8] (setting [13]), 9.2 ± 1.9 µM; in assay [9], 8 ± 1 µM.
Take `CC1(C)SC2C(NC(=O)C(NC(=O)CN(CCCCNC(=O)c3cccc(O)c3O)C(=O)c3cccc(O)c3O)c3ccccc3)C(=O)N2C1C(=O)O` (stereo not drawn) [BAMP, bis-catechol (azotochelin)-ampicillin]: the MIC in [1] (Escherichia coli, ID-MHBCA) stood at 0.012 µM (≈ 0.009 µg/mL); in [1] (Escherichia coli, MHBCA), 0.024 µM (≈ 0.018 µg/mL); in assay [2] (Escherichia coli), 0.05 µM (≈ 0.0375 µg/mL); in assay [3] (setting [14]), 0.4 µM (≈ 0.3 µg/mL). In addition, the IC50 is 2.4 ± 0.54 µM in assay [4]; 2.26 ± 0.57 µM in assay [5] (setting [10]); 0.091 ± 0.007 µM in assay [6] (setting [11]); more than 50 µM in assay [7] (setting [12]); 5.1 ± 2.1 µM in assay [8] (setting [13]); 4.24 ± 0.07 µM in assay [9].
Regarding `O=C(CN(CCCCNC(=O)c1cccc(O)c1O)C(=O)c1cccc(O)c1O)NC(C(=O)NC1C(=O)N2C(C(=O)O)=C(Cl)CCC12)c1ccccc1` (stereo not drawn) [BLOR, bis-catechol (azotochelin)-loracarbef], the MIC in assay [1] (Escherichia coli, ID-MHBCA) turned out to be 0.006 µM (≈ 0.0045 µg/mL); in assay [1] (Escherichia coli, MHBCA), 0.006 µM (≈ 0.0045 µg/mL); in assay [2] (Escherichia coli), 0.012 µM (≈ 0.009 µg/mL); in assay [3] (setting [14]), 6.3 µM (≈ 4.73 µg/mL). In addition, the IC50 is 0.55 ± 0.02 µM in assay [4]; more than 50 µM in assay [5] (setting [10]); 0.075 ± 0.011 µM in assay [6] (setting [11]); 8.3 ± 0.5 µM in assay [7] (setting [12]); 33.9 ± 5.6 µM in assay [8] (setting [13]); 0.43 ± 0.17 µM in [9]. Besides, the “IC50 value ratio βL/SID-βL, PBP3” value in assay [6] was 199.
In the case of `N[C@@H](C(=O)N[C@@H]1C(=O)N2C(C(=O)O)=C(Cl)CS[C@H]12)c1ccccc1` [CEF, cefaclor, reference compound], the MIC was 3.1 µM (≈ 1.14 µg/mL) in assay [1] (Escherichia coli, ID-MHBCA); 3.1 µM (≈ 1.14 µg/mL) in assay [1] (Escherichia coli, MHBCA); 6.3 µM (≈ 2.32 µg/mL) in assay [2] (Escherichia coli); more than 200 µM in assay [3] (Pseudomonas aeruginosa, 1020). Also, the IC50 in assay [4] is 34 ± 2 µM; in assay [5], more than 50 µM; in assay [6], 15.4 ± 0.9 µM; in assay [7] it was 40.2 ± 8.6 µM; in assay [8], more than 50 µM; in [9], 7.9 ± 1.5 µM.
As for `N[C@@H](C(=O)N[C@@H]1C(=O)N2C(C(=O)O)=C(Cl)CC[C@H]12)c1ccccc1` [LOR, loracarbef, reference compound], the MIC in [1] (ID-MHBCA) was 3.1 µM (≈ 1.08 µg/mL); in assay [1] (MHBCA), 3.1 µM (≈ 1.08 µg/mL); in [2] (ΔacrAB), 3.1 µM (≈ 1.08 µg/mL); in assay [3] (P. aeruginosa 1020, read-out: MIC) it was more than 200 µM. Also, the IC50 in assay [4] is 42.5 ± 11.8 µM; in assay [5] (setting [10]) it was more than 50 µM; in [6] (setting [11]), 14.9 ± 4.3 µM; in [7] (setting [12]), 31.6 ± 9 µM; in assay [8] (setting [13]), more than 50 µM; in assay [9], 4.5 ± 2.1 µM.
As to `O=C(CCC(=O)N(CCCCNC(=O)c1cccc(O)c1O)CCCNC(=O)c1cccc(O)c1O)NCCCCCN(O)C(=O)CCCC(=O)NC(C(=O)NC1C(=O)N2C(C(=O)O)=C(Cl)CSC12)c1ccccc1` (stereo not drawn) [MCEF, mixed ligand bis-catechol-mono-hydroxamate-cefaclor], the MIC is more than 200 µM in assay [1] (Escherichia coli, ID-MHBCA); 13 µM (≈ 14.1 µg/mL) in assay [1] (Escherichia coli, MHBCA); 3.1 µM (≈ 3.35 µg/mL) in assay [2] (Escherichia coli); more than 100 µM in [3] (setting [14]). In addition, in assay [4] (E. coli MC4100), the “IC50 value ratio βL/SID-βL, PBP1a/1b” value is reported as 227. Besides, the IC50 in assay [4] worked out at 0.15 ± 0.01 µM; in [5] (read-out: IC50 PBP2, E. coli MC4100 membranes) it was 29.3 ± 2.3 µM; in [6] (read-out: IC50 PBP3, E. coli MC4100 membranes), 0.32 ± 0.01 µM; in assay [7] (read-out: IC50 PBP4, E. coli MC4100 membranes), 8.6 ± 1.3 µM; in assay [8] (read-out: IC50 PBP2, K. pneumoniae ATCC 13883 membranes) it was 16.8 ± 0.3 µM; in assay [9] it was 0.35 ± 0.02 µM. Moreover, the “IC50 value ratio βL/SID-βL, PBP3” value in assay [6] was determined as 49.
